Assay results taken from patent publication US20230233567A1, “BELVARAFENIB FOR USE IN CANCER TREATMENT” (Hanmi Pharm. Co., Ltd., priority 2020, published 2023).
Several values for one entry are separate records, joined by “and”; a condition that tells them apart may be missing. Equal values may be shown once.

How the values were obtained:
[1] = tested on: locally advanced and/or metastatic solid tumors carrying mutations in the BRAF, KRAS, and/or NRAS genes; test: Phase I dose-escalation tumor response (RECIST v1.1); assay type: in vivo, human; details: for Best Change (size of target lesions from baseline): partial responder; for tumor response duration: n=1; for BORR (unconf.) / DCR / ORR (conf.) / PFS Median / DOR Median: Dose-Escalation
Method: Phase I dose-escalation (NCT02405065) and dose-expansion studies (NCT02405065) were conducted in patients with locally advanced and/or metastatic solid tumors carrying mutations in the BRAF, KRAS, and/or NRAS genes.
Eligible patients had measurable or evaluable disease per the Response Evaluation Criteria in Solid Tumors version 1.1 (RECIST v1.1). See Eisenhauer E A, Therasse P, Bogaerts J, et al., “New response evaluation criteria in solid tumours: revised RECIST guideline (version 1.1)”, Eur J Cancer 45:228-47, 2009. All patients had progressed on one or more prior lines of therapy or had no available standard therapy at the time of study entry. Additional eligibility criteria included Eastern Cooperative Oncology Group (ECOG) performance status ≤2 and life expectancy ≥12 weeks. Patients with cardiovascular abnormalities as mean QTcF>440 msec were excluded from the dose-expansion phase.
Tumor response assessments were performed radiographically by the investigator using RECIST version 1.1 at baseline, and at the end of every two treatment cycles until discontinuation. Safety evaluation (Safety Set) included all patients who received one or more doses of belvarafenib and efficacy evaluation (Full Analysis Set) included subjects who received at least one dose of belvarafenib and had at least one post-dose tumor response assessment.

SNU790 (BRAF^V600E) = test: In vitro cell growth inhibition, thyroid cancer; assay type: cell-based; details: SNU7890, BRAF^V600E
[2] = BRAF^V600E Melanoma, 450 mg BID

SMILES: Cc1ccc2c(Nc3cccc(Cl)c3F)nccc2c1NC(=O)c1csc2c(N)ncnc12 [Belvarafenib]
- treatment Duration ([1]; BRAF^V600E CRC, 200 mg BID): 303 days and 255 days
- treatment Duration ([1]; BRAF^V600E GIST, 200 mg BID): 512 days
- Best Change (size of target lesions from baseline) ([1]; BRAF^V600E GIST, 450 mg BID): −38.1%
- treatment Duration [1, 2]: 377 days
- Best Change (size of target lesions from baseline) [1, 2]: −33.2%
- treatment Duration ([1]; BRAF^V600E Melanoma, 800 mg BID): 702 days
- tumor response duration ([1]; BRAFm GIST): 36 weeks
- BORR (unconf.) ([1]; All pts (N = 67)): 7 (10.5) n (%)
- DCR ([1]; All pts (N = 67)): 34 (50.6) n(%)
- ORR (conf.) ([1]; All pts (N = 67)): 3 (4.5) n(%)
- PFS Median ([1]; All pts (N = 67)): 11.5 weeks
- DOR Median ([1]; All pts, 7 responders): 24.0 weeks
- BORR (unconf.) ([1]; NRASm mel. (N = 9)): 4 (44.4) n (%)
- DCR ([1]; NRASm mel. (N = 9)): 6 (66.7) n(%)
- ORR (conf.) ([1]; NRASm mel. (N = 9)): 1 (11.1) n(%)
- PFS Median ([1]; NRASm mel. (N = 9)): 25 weeks and 24.9 weeks
- DOR Median ([1]; NRASm mel., 4 responders): 17.8 weeks
- treatment Duration ([1]; KRAS^G12C CRC, 100 mg BID): 437 days
- treatment Duration ([1]; KRAS^G12V Bladder, 300 mg BID): 311 days
- Best Change (size of target lesions from baseline) ([1]; KRAS^G12V Sarcoma, 450 mg BID): −50.5%
- tumor response duration ([1]; KRASm sarcoma): 18 weeks
- treatment Duration ([1]; NRAS^G12C Melanoma, 800 mg BID): 611 days
- Best Change (size of target lesions from baseline) ([1]; NRAS^G12D Melanoma, 450 mg BID): −44.4%
- Best Change (size of target lesions from baseline) ([1]; NRAS^Q61 AND BRAF^V600E Melanoma, 450 mg BID): −33.8%
- treatment Duration ([1]; NRAS^Q61K Melanoma, 200 mg BID): 307 days
- treatment Duration ([1]; NRAS^Q61K Melanoma, 300 mg BID): 278 days
- Best Change (size of target lesions from baseline) ([1]; NRAS^Q61K Melanoma, 450 mg BID): −36.2%
- Best Change (size of target lesions from baseline) ([1]; NRAS^Q61R Melanoma, 450 mg BID): −30.6%
- patients with best overall response of partial response (PR) ([1]; dose-escalation, 67 patients): 10.4%
- best overall response rate [BORR] ([1]; dose-escalation, NRASm melanoma, 9 patients): 44%
- GI50 (SNU790 (BRAF^V600E)): 27 nM
